{
  "source": "patent US20230321187A1",
  "about": "“OCTOPUS-DERIVED PEPTIDE OCTOPROMYCIN HAVING ANTIBACTERIAL AND ANTI-BIOFILM ACTIVITY AGAINST ACINETOBACTER BAUMANNII” (priority 2020, published 2023)",
  "key": {"[1]": {"assay": "MTT cytotoxicity assay in HEK293 cells", "format": "cell-based, human", "conditions": "HEK293T cells", "experimental": "(§1) To measure the cytotoxicity of octopromycin on HEK293T (American Type Culture Collection ATCC-11268) and Raw 264.7 cells, the cells were treated with octopromycin and cell viability was evaluated. The cells were harvested, counted and seeded at a density of […] per well in a 96-well plate and cultured for 24 hours at 37° C. and 5% CO2. The cells were treated with different concentrations of octopromycin (0 to 800 μg/mL) and cultured for 24 hours. After culturing, the culture medium was replaced with a fresh medium, and 10 μL of MTT (5 mg/mL) was added to each well and incubated in a CO2 incubator for 4 hours. The formed formazan crystals were dissolved in 50 μL of DMSO and absorbance was measured at 570 nm using a microplate reader (Bio-Rad Laboratories, Inc, USA). Cells treated with the medium (control) were considered as 100% viability (control group), and current viability was normalized and calculated for the untreated control group."}, "HEK293T cells": {"system": "HEK293T cells", "assay": "MTT cytotoxicity assay in HEK293 cells", "format": "cell-based, human", "experimental": "as §1"}, "A. baumannii [2]": {"system": "A. baumannii", "assay": "H2DCF-DA assay of ROS production", "format": "cell-based, Acinetobacter baumannii", "conditions": "MIC (50 μg/mL) and MBC (200 μg/mL), 10 hours", "experimental": "To further examine a mode of action of octopromycin related to endogenous ROS production in A. baumannii by octopromycin, H2DCF-DA assay was performed. The accumulation of ROS in A. baumannii was quantified using fluorescent probe carboxy-H2DCF-DA (Invitrogen, USA). An A. baumannii culture solution (OD-0.25, 5×10^6 CFU/mL) was treated with octopromycin (MIC; 50 μg/mL and MBC; 200 μg/mL) and cultured at 25° C. for 10 hours, and then, cells were harvested by centrifugation at 5000 rpm for 2 minutes. To detect ROS levels, the cells were stained with H2DCF-DA (100 μg/mL) and cultured at room temperature (24±1° C.) for 30 minutes and then centrifuged at 5000 rpm for 2 minutes. The cells were washed with ×1 PBS and dichloro-fluorescein (DCF) fluorescence was measured using CLSM (LSMS Live Configuration Variotwo VRGB, Zeiss, Germany) at an excitation wavelength of 488 nm and an emission wavelength of 535 nm."}, "A. baumannii [3]": {"system": "A. baumannii", "assay": "A. baumannii-infected zebrafish model (viability, CFU, clinical signs)", "format": "in vivo", "experimental": "The effect of octopromycin as an antibacterial agent was confirmed using zebrafish as an animal model.\nA total of 72 zebrafish (average weight: 0.35±0.05 g) were divided into 3 groups: (1) non-infected control group treated with PBS and water, (2) A. baumannii-infected group, and (3) A. baumannii-infected and octopromycin-treated group (octopromycin-treated group).\nZebrafish was anesthetized using system water containing 160 μg/mL of tricaine (ethyl 3-aminobenzoate methane sulfonate). The control group ((1) group) was injected with 10 μL of nucleous free water (NFW) and 20 μL of PBS using a Hamilton® syringe. The A. baumannii-infected group ((2) group) was injected intraperitoneally with 10 μL of NFW, and the octopromycin-treated group ((3) group) was injected intraperitoneally with 10 μL of octopromycin (10 μg/fish). Then, A. baumannii was injected intraperitoneally (0 hpi) in the A. baumannii-infected group and the octopromycin-treated group at a dose of 20 μ1 (3.4×10^11 CFU) per fish, and then injected every 2 hpi until 48 hpi. To confirm the antibacterial effect of octopromycin, fish mortality was recorded every 12 hpi and the viability of each group was examined.\nIn addition, the number of bacteria (CFU) in the kidneys and spleens of the control group and the infected zebrafish was observed. 3 fish from each group at the 80% mortality stage of the A. baumannii-infected group was selected, and then the spleen and the kidney were collected, and individual spleen and kidney tissues from each zebrafish were homogenized in PBS and the homogenates were serially diluted and loaded onto an agar plate (TSA) to measure A. baumannii CFU."}, "zebrafish embryos": {"system": "zebrafish embryos", "assay": "Zebrafish embryo toxicity (mortality and teratogenicity)", "format": "in vivo", "experimental": "Wild-type (AB) adult zebrafish was maintained in an automated water circulation system at 28° C. under a photoperiod of 14 h (light): 10 h (dark). After zebrafish (to 4 months of age) was mated, embryos were collected at a 1 hours post fertilization (1 hpf) stage and rinsed with embryo water. First, the viability of newly fertilized embryos was identified under a stereoscopic microscope (Nikon, SMZ1000, Japan) before use in experiments. To determine toxicity levels at 24, 48, 72, and 96 hours after exposure, embryos at stages 1-2 hpf were exposed to various concentrations of octopromycin (0 to 8 μg/mL) for 96 hours.\nIn addition, to evaluate in vivo toxicity, the cumulative mortality of developing zebrafish embryos for 96 hours was calculated at octopromycin exposure (0, 0.25, 0.50, 1.00, 2.00, 4.00, and 8.00 μg/mL). […] However, concentration-dependent mortality patterns occurred by an increase in octopromycin concentration."}, "Raw 264.7 cells": {"system": "Raw 264.7 cells", "assay": "MTT cytotoxicity assay in Raw 264.7 cells", "format": "cell-based", "experimental": "as §1"}, "[4]": {"assay": "MTT cytotoxicity assay in Raw 264.7 cells", "format": "cell-based", "conditions": "mouse, Raw 264.7 cells", "experimental": "as §1"}, "A. baumannii [5]": {"system": "A. baumannii", "assay": "Time-kill kinetics (OD 595 nm)", "format": "cell-based, Acinetobacter baumannii", "experimental": "The MIC and MBC levels of octopromycin in A. baumannii were determined using media dilution tests and subcultures, respectively, according to the guidelines of the Clinical and Laboratory Standards Institute (CLSI, 2008 M27-A3). Several concentrations of octopromycin (0, 5, 10, 25, 50, 100, and 200 μg/mL) were tested as standard antibiotics (positive control) together with chloramphenicol (10 μg/mL, Sigma-Aldrich, USA) acting on A. baumannii growth and the MBC of chloramphenicol was confirmed according to the same procedure. The MIC was determined as the minimum concentration required to inhibit visual growth of A. baumannii. […] For analysis of time-kill kinetics, A. baumannii was cultured with octopromycin at various concentrations (0, 25, 50, 100, and 200 μg/mL) in the TSA medium at 25° C., and at different time intervals (0, 3, 6, 9, 12, 18, and 21 h), the absorbance was measured at 595 nm using a microplate reader (Bio-Rad, Saint Louis, USA) to confirm an inhibitory effect after culturing."}},
  "note": "Entries after “also recorded” stand apart in the source; their conditions may differ. Where no end group is shown, it is not given here.",
  "data": [
    {"sequence": "RRLIRTDTGPIIYDYFKDQLLKKGMVILRESMKNLKGM [octopromycin]", "values": [
      {"measurement": "viability at 24 h", "setting": "[1]; human embryonic kidney 293T, concentration not given, read-out: cells alive", "value": "≥ 85", "unit": "%"},
      {"measurement": "viability at 24 h, 400 µg/mL", "setting": "[1]; human, HEK293, 400 μg/mL, 24 hours, read-out: cell viability", "value": 85, "unit": "%"},
      {"measurement": "cell viability", "setting": "HEK293T cells; HEK293, >400 μg/mL", "value": "significantly reduced"},
      {"measurement": "toxic effect", "setting": "HEK293T cells; HEK293, MBC level (200 μg/mL)", "value": "no toxic effect"},
      {"measurement": "ROS level", "setting": "A. baumannii [2]", "value": "increased in a concentration-dependent manner; also recorded: increased the production of reactive oxygen species"},
      {"measurement": "viability of infected zebrafish", "setting": "A. baumannii [3]; 10 μg/fish intraperitoneally, 48 hours after A. baumannii infection", "value": 37.5, "unit": "%"},
      {"measurement": "number of bacteria (CFU) in spleen and kidney", "setting": "A. baumannii [3]; 10 μg/fish, rank among the three groups", "value": "second highest"},
      {"measurement": "external clinical signs (hemorrhage)", "setting": "A. baumannii [3]; 10 μg/fish, vs A. baumannii-infected group", "value": "less hemorrhage"},
      {"measurement": "embryo mortality", "setting": "zebrafish embryos; 0.25 μg/mL, 96 hours exposure", "value": "no embryo mortality"},
      {"measurement": "toxicity to zebrafish embryos", "setting": "zebrafish embryos; 4 μg/mL", "value": "not toxic"},
      {"measurement": "embryo mortality", "setting": "zebrafish embryos; 8.0 μg/mL, 24 hpe", "value": 100, "unit": "%"},
      {"measurement": "maximum non-lethal concentration", "setting": "zebrafish embryos; zebrafish embryos, no abnormal appearance", "value": 4, "unit": "µg/mL"},
      {"measurement": "cell viability", "setting": "Raw 264.7 cells; Raw 264.7, >400 μg/mL", "value": "significantly reduced"},
      {"measurement": "toxic effect", "setting": "Raw 264.7 cells; Raw 264.7, MBC level (200 μg/mL)", "value": "no toxic effect"},
      {"measurement": "viability at 24 h, 400 µg/mL", "setting": "[4]; Raw 264.7, 400 μg/mL, 24 hours, read-out: cell viability", "value": 80, "unit": "%"},
      {"measurement": "viability at 24 h", "setting": "[4]; Raw 264.7, concentration not stated, read-out: cells alive", "value": "≥ 85", "unit": "%"},
      {"measurement": "growth inhibition (time-kill kinetics)", "setting": "A. baumannii [5]; 25 μg/mL, up to 12 hours", "value": "partial growth inhibition"},
      {"measurement": "growth inhibition (time-kill kinetics)", "setting": "A. baumannii [5]; at a MIC concentration or less, 25° C., OD 595 nm", "value": "clear growth inhibition"}
    ]}
  ]
}
